According to US12534469B2 (CHILDREN'S HOSPITAL MEDICAL CENTER, priority 2020, dated 2026):
Substitutions are numbered along the chain they refer to.

Columns and labels:
[1] = target: T1, FLT3 D835Y (Homo sapiens, UniProt P36888, D835Y); assay: DiscoverX KINOMEscan competition binding assay, FLT3 D835Y
T1 construct: purchased DiscoverX (KINOMEscan); host or cells: E. coli (T7 phage) or HEK-293
T1 sequence (P36888 27-993 D835Y): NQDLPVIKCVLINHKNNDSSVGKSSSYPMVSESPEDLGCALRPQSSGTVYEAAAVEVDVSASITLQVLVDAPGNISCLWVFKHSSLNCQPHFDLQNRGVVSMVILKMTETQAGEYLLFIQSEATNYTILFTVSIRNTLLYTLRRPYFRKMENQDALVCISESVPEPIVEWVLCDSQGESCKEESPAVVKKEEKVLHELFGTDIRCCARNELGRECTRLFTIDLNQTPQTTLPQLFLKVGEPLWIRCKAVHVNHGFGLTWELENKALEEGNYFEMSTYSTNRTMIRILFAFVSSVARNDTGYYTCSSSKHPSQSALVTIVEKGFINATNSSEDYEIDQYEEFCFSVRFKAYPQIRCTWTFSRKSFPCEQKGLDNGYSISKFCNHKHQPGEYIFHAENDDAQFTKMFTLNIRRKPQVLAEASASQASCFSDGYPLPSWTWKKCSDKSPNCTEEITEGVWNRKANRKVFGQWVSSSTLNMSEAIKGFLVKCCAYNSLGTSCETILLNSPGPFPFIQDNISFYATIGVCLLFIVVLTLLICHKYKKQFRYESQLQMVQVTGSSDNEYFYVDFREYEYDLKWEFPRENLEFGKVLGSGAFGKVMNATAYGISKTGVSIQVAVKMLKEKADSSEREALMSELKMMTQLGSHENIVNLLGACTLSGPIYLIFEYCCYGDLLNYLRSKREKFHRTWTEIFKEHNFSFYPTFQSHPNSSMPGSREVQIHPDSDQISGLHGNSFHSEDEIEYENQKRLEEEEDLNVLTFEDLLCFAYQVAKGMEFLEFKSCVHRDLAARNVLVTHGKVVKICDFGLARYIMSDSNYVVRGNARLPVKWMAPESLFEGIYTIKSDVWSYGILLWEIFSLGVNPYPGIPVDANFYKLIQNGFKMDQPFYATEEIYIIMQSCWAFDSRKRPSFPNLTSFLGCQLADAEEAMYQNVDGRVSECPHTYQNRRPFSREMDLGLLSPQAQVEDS
Source text: (§1) Kinase binding data were obtained for various exemplary compounds prepared according to Examples 1-25 using the DiscoverX KINOMEscan® active site-directed competition binding site-directed assay protocol described below. […] As a result, the data report thermodynamic interaction affinities (Kd values), rather than IC50 values that are dependent on ATP concentrations. The assay uses a DNA-tagged version of the protein kinase, and an immobilized ligand bound to a solid support. Compounds that directly or indirectly prevent kinase binding to the immobilized ligand reduce the amount of kinase captured on the solid support, which is detected using an ultra-sensitive qPCR method. Affinity constants reported from the assay have been reported to be independent of the immobilized ligand used that is coupled to the solid support (See supplemental information in Fabian, M. A. et. al., (2005) Nat. Biotechnol. 23, 329-336; Wodicka, L. M. et. al., (2010) Chem. Biol. 17, 1241-1249.)
(§2) Kinase-tagged T7 phage strains were prepared in an E. coli host derived from the BL21 strain. E. coli were grown to log-phase and infected with T7 phage and incubated with shaking at 32° C. until lysis. The lysates were centrifuged and filtered to remove cell debris. The remaining kinases were produced in HEK-293 cells and subsequently tagged with DNA for qPCR detection. […] The liganded beads were blocked with excess biotin and washed with blocking buffer (SeaBlock (Pierce), 1% BSA, 0.05% Tween 20, 1 mM DTT) to remove unbound ligand and to reduce non-specific binding. […] Test compounds were prepared as 111× stocks in 100% DMSO. Kds were determined using an 11-point 3-fold compound dilution series with three DMSO control points. […] The compounds were then diluted directly into the assays such that the final concentration of DMSO was 0.9%. All reactions were performed in polypropylene 384-well plates. Each was a final volume of 0.02 mL. […] The kinase concentration in the eluates was measured by qPCR.
(§3) Binding constants (Kds) were calculated with a standard dose-response curve using the Hill equation. […]

[2] = target: T2, FLT3 D835H (Homo sapiens, UniProt P36888, D835H); assay: DiscoverX KINOMEscan competition binding assay, FLT3 D835H
T2 construct: purchased DiscoverX (KINOMEscan); host or cells: E. coli (T7 phage) or HEK-293
T2 sequence (P36888 27-993 D835H): T1 sequence (P36888 27-993 D835Y) with Y809H
Source text: as §1, §2, §3

| Kd [1] | Kd [2] | Compound |
| --- | --- | --- |
| 0.46 nM | 0.23 nM | COc1cc2ncc(-c3cccc(N[C@H]4CNC[C@@H]4F)n3)n2nc1C1CC1 [Compound 96, 6-(6-cyclopropyl-7-methoxyimidazo[1,2-b]pyridazin-3-yl)-N-((3S,4S)-4-fluoropyrrolidin-3-yl)pyridin-2-amine] |
| 0.063 nM | 0.18 nM | COc1cc2ncc(-c3cccc(N[C@@H]4CCNC4)n3)n2nc1C1CC1 [Compound 97, (R)-6-(6-cyclopropyl-7-methoxyimidazo[1,2-b]pyridazin-3-yl)-N-(pyrrolidin-3-yl)pyridin-2-amine] |
| 0.16 nM | 0.21 nM | COc1cc2ncc(-c3cccc(N[C@H]4CNCC[C@@H]4F)n3)n2nc1C1CC1 [Compound 102, 6-(6-cyclopropyl-7-methoxyimidazo[1,2-b]pyridazin-3-yl)-N-((3S,4S)-4-fluoropiperidin-3-yl)pyridin-2-amine] |
